Laboratory results published in patent US20050049224A1, “Antimicrobial mixtures comprising iodopropynyl compounds and dimethyldithiocarbamate derivatives” (priority 2003, published 2005).

Tests used:
Aspergillus niger = assay: Fungal growth on acrylic/vinyl acrylic white house paint film on filter paper; type: cell-based; settings: 0.06% actives in paint, four weeks 28° C., scale 1 (no growth touching square) to 15 (totally covered), average of at least 3 runs
Method: In this example an acrylic, vinyl acrylic white house paint was used as the test medium.
Test formulations of the actives were prepared for each of the biocide blends to be tested (see tables 2b and 2c) by weighing the appropriate amounts of actives and adding them to the test paint so that in each test formulation the weight of the actives was 20% of the sample and 80% of the sample was paint. Each mixture was then stirred to achieve a homogeneous mixture. These test formulations were then incorporated into the test paint at the rate of 0.3% w/w, i.e. the final level of actives in the paint was 0.06%.
The test paints were then applied to a filter paper using a standard 3-mil drawdown bar to insure uniformity of the film. Samples were then dried at room temperature, and placed on agar contained in a Petri dish. The filter papers were then inoculated with a test inoculum of Aspergillus niger. Inoculated filter papers containing the test paints were placed in a constant temperature (28° C.) fungal incubator for four weeks. At the end of the incubation, fungal growth on each test paint was measured and recorded.
Each test blend was run at least 3 times and each result represents the average of the runs.

[1] = system: Aspergillus niger (ATCC 6275); assay: Minimum Inhibitory Concentration (MIC) by spiral gradient endpoint plating, with Kull synergistic index; type: cell-based
Method: Spores were removed from the Aspergillus niger slant by adding a small amount of phosphate buffer pH 7.0 (Thomas Scientific phosphate buffer & magnesium chloride, Lot # 023-0703) and scraping with a sterile nichrome wire loop. This process was repeated twice. Loosened spores were removed from the slant by aseptically pouring them into a sterile bottle containing 30 ml. of phosphate buffer and a volume of roughly 40 ml. of 6-mm, borosilicate glass beads. The bead bottle was shaken to disperse the spores and additional buffer was added to a final volume of 50 ml. Spore density was adjusted in distilled water blanks to that of a 0.5. McFarland nephelometer standard.
With the aid of the SGE Software the proper aqueous dilutions of each biocide or test blend were prepared and adjusted to a final volume of 10 ml. Then, 250 micro-liters of each biocide mixture was processed by the spiral plater.
The Autoplate 4000 mechanically applied mixtures of test fungicides to 150 MM malt agar plates using an exponential application gradient. Gradients of applied fungicides were allowed to completely diffuse into the surface of the agar (1 to 4 hours at room temperature 23° C.) before inoculating the plates with fungi. […]
Following incubation, visible growth of the test organism was observed on a portion of the radial streak and ended where the concentration of biocide was high enough to prevent growth. This growth endpoint was used by the SGE software to compute the exact MIC expressed as parts per million (PPM) of active fungicide. […]
Elisman, H. D. Sylwestrowicz and P. K. Mayer, in Applied Microbiology, 9:538 (1961) where: • Qa=the quantity of A used in a binary mixture that gives the desired effect. • QA=the quantity of A which when used alone gives the desired effect. • Qb=the quantity of B used in a binary mixture that gives the desired effect. • QB=the quantity of B which when used alone gives the desired effect.
The synergistic index (SI) for each mixture was determined by the equation SI=Qa/QA+Qb/QB.

[2] = system: Streptoverticillium reticulans ATCC 25607 (pink stain organism); assay: ASTM E 1428-91 pink stain test of flexible PVC film; settings: Table 3d, IPBC/Thiram in PVC film, 1000 ppm total; two weeks 28° C.; 0 no stain, 1 trace <10%, 2 slight 10-30%, 3 moderate 30-50%, 4 heavy >50% coverage; average of triplicate
Method: In this example a PVC formulation for flexible vinyl film was used as the test medium.
Five blends were prepared by adding the appropriate amount of the biocide to separate vinyl film form formulations prepared according to Table 3a.
Difco malt agar was prepared using manufacturers directions. Sterilized agar (30 ML) was poured into sterile plastic 100 mm Petri dishes to provide a solidified agar layer sufficient to nourish the test organism for the duration of the test.
Following inoculation of the agar, a sterile forceps was used to place the test specimen, previously sterilized by a brief dip in boiling water, on the agar. Each test blend was run in triplicate and the result represents the average of the three. The specimen was gently pressed on the surface of the agar to insure good contact. The Petri dishes were covered and incubated for two weeks in a 28° C. incubator.
Following incubation, samples were lifted from the surface of the agar and both sides were examined against a white background for presence of pink staining.
Degree of staining reported was determined by the area of the sample stained rather than by intensity of the color. […]

CCCCNC(=O)OCC#CI [IPBC, 3-iodo-2-propynyl butyl carbamate]
Fungal Growth (Aspergillus niger; Table 2b, IPBC/Ziram): 7.8 fungus units | Fungal Growth (Aspergillus niger; Table 2c, IPBC/Thiram): 2.8 fungus units | QA (quantity of A which when used alone gives the desired effect) ([1]; MIC of IPBC alone (Table 1a)): 1.08 ppm | QA (quantity of A which when used alone gives the desired effect) ([1]; MIC of IPBC alone (Table 1b)): 1.08 ppm

CN(C)C(=S)SSC(=S)N(C)C [Thiram, bis(dimethylthiocarbamoyl) disulfide]
Fungal Growth (Aspergillus niger; Table 2c, IPBC/Thiram): 13.8 fungus units | Pink Stain Rating [2]: 2.0 | QB (quantity of B which when used alone gives the desired effect) ([1]; MIC of Thiram alone (Table 1b)): 26.73 ppm
